In patent US12281080B2, “Quinoline-based compounds and methods of inhibiting CDK8/19” (University of South Carolina, priority 2018, dated 2025):

Tests used:
[1] = target: ABL1(H396P)-nonphosphorylated (Homo sapiens (Human), UniProt P00519, H396P); experiment: KINOMEscan scanMAX; assay type: binding; conditions: 2000 nM; read-out: Percent Control
[2] = target: BRSK1 (Homo sapiens (Human), UniProt Q8TDC3); experiment: KINOMEscan scanMAX; assay type: binding; conditions: 2000 nM; read-out: Percent Control
[3] = target: CASK (Homo sapiens (Human), UniProt O14936); experiment: KINOMEscan scanMAX; assay type: binding; conditions: 2000 nM; read-out: Percent Control
[4] = target: CDK2 (Homo sapiens (Human), UniProt P24941); experiment: KINOMEscan scanMAX; assay type: binding; conditions: 2000 nM; read-out: Percent Control
[5] = target: CDKL5 (Homo sapiens (Human), UniProt O76039); experiment: KINOMEscan scanMAX; assay type: binding; conditions: 2000 nM; read-out: Percent Control
[6] = target: CLK2 (Homo sapiens (Human), UniProt P49760); experiment: KINOMEscan scanMAX; assay type: binding; conditions: 2000 nM; read-out: Percent Control
[7] = target: CSNK1D (Homo sapiens (Human), UniProt P48730); experiment: KINOMEscan scanMAX; assay type: binding; conditions: 2000 nM; read-out: Percent Control
[8] = target: CSNK1G3 (Homo sapiens (Human), UniProt Q9Y6M4); experiment: KINOMEscan scanMAX; assay type: binding; conditions: 2000 nM; read-out: Percent Control
[9] = target: FAK (PTK2) (Homo sapiens (Human), UniProt Q05397); experiment: KINOMEscan scanMAX; assay type: binding; conditions: 2000 nM; read-out: Percent Control
[10] = target: FGFR2 (Homo sapiens (Human), UniProt P21802); experiment: KINOMEscan scanMAX; assay type: binding; conditions: 2000 nM; read-out: Percent Control
[11] = target: FGFR4 (Homo sapiens (Human), UniProt P22455); experiment: KINOMEscan scanMAX; assay type: binding; conditions: 2000 nM; read-out: Percent Control
[12] = target: FLT3(R834Q) (Homo sapiens (Human), UniProt P36888, R834Q); experiment: KINOMEscan scanMAX; assay type: binding; conditions: 2000 nM; read-out: Percent Control
[13] = target: IKK-alpha (CHUK) (Homo sapiens (Human), UniProt O15111); experiment: KINOMEscan scanMAX; assay type: binding; conditions: 2000 nM; read-out: Percent Control
[14] = target: IKK-epsilon (IKBKE) (Homo sapiens (Human), UniProt Q14164); experiment: KINOMEscan scanMAX; assay type: binding; conditions: 2000 nM; read-out: Percent Control
[15] = target: KIT-autoinhibited (Homo sapiens (Human), UniProt P10721); experiment: KINOMEscan scanMAX; assay type: binding; conditions: 2000 nM; read-out: Percent Control
[16] = target: MAP4K4 (Homo sapiens (Human), UniProt O95819); experiment: KINOMEscan scanMAX; assay type: binding; conditions: 2000 nM; read-out: Percent Control
[17] = target: MAPKAPK5 (Homo sapiens (Human), UniProt Q8IW41); experiment: KINOMEscan scanMAX; assay type: binding; conditions: 2000 nM; read-out: Percent Control
[18] = target: MEK6 (MAP2K6) (Homo sapiens (Human), UniProt P52564); experiment: KINOMEscan scanMAX; assay type: binding; conditions: 2000 nM; read-out: Percent Control
[19] = target: MST3 (STK24) (Homo sapiens (Human), UniProt Q9Y6E0); experiment: KINOMEscan scanMAX; assay type: binding; conditions: 2000 nM; read-out: Percent Control
[20] = target: MTOR (Homo sapiens (Human), UniProt P42345); experiment: KINOMEscan scanMAX; assay type: binding; conditions: 2000 nM; read-out: Percent Control
[21] = target: NEK6 (Homo sapiens (Human), UniProt Q9HC98); experiment: KINOMEscan scanMAX; assay type: binding; conditions: 2000 nM; read-out: Percent Control
[22] = target: NEK7 (Homo sapiens (Human), UniProt Q8TDX7); experiment: KINOMEscan scanMAX; assay type: binding; conditions: 2000 nM; read-out: Percent Control
[23] = target: p38-beta (MAPK11) (Homo sapiens (Human), UniProt Q15759); experiment: KINOMEscan scanMAX; assay type: binding; conditions: 2000 nM; read-out: Percent Control
[24] = target: p38-gamma (MAPK12) (Homo sapiens (Human), UniProt P53778); experiment: KINOMEscan scanMAX; assay type: binding; conditions: 2000 nM; read-out: Percent Control
[25] = target: PAK6 (Homo sapiens (Human), UniProt Q9NQU5); experiment: KINOMEscan scanMAX; assay type: binding; conditions: 2000 nM; read-out: Percent Control
[26] = target: PHKG1 (Homo sapiens (Human), UniProt Q16816); experiment: KINOMEscan scanMAX; assay type: binding; conditions: 2000 nM; read-out: Percent Control
[27] = target: PIK3CA(E542K) (Homo sapiens (Human), UniProt P42336, E542K); experiment: KINOMEscan scanMAX; assay type: binding; conditions: 2000 nM; read-out: Percent Control
[28] = target: PIK3CA(Q546K) (Homo sapiens (Human), UniProt P42336, Q546K); experiment: KINOMEscan scanMAX; assay type: binding; conditions: 2000 nM; read-out: Percent Control
[29] = target: PIKFYVE (Homo sapiens (Human), UniProt Q9Y2I7); experiment: KINOMEscan scanMAX; assay type: binding; conditions: 2000 nM; read-out: Percent Control
[30] = target: PIP5K2B (PIP4K2B) (Homo sapiens (Human), UniProt P78356); experiment: KINOMEscan scanMAX; assay type: binding; conditions: 2000 nM; read-out: Percent Control
[31] = target: RIOK2 (Homo sapiens (Human), UniProt Q9BVS4); experiment: KINOMEscan scanMAX; assay type: binding; conditions: 2000 nM; read-out: Percent Control
[32] = target: ROS1 (Homo sapiens (Human), UniProt P08922); experiment: KINOMEscan scanMAX; assay type: binding; conditions: 2000 nM; read-out: Percent Control
[33] = target: SgK110 (Homo sapiens (Human), UniProt P0C264); experiment: KINOMEscan scanMAX; assay type: binding; conditions: 2000 nM; read-out: Percent Control
[34] = target: TESK1 (Homo sapiens (Human), UniProt Q15569); experiment: KINOMEscan scanMAX; assay type: binding; conditions: 2000 nM; read-out: Percent Control
[35] = target: TYRO3 (Homo sapiens (Human), UniProt Q06418); experiment: KINOMEscan scanMAX; assay type: binding; conditions: 2000 nM; read-out: Percent Control
[36] = target: VEGFR2 (KDR) (Homo sapiens (Human), UniProt P35968); experiment: KINOMEscan scanMAX; assay type: binding; conditions: 2000 nM; read-out: Percent Control
[37] = target: WEE2 (Homo sapiens (Human), UniProt P0C1S8); experiment: KINOMEscan scanMAX; assay type: binding; conditions: 2000 nM; read-out: Percent Control
[38] = test system: 468 human kinases and disease relevant mutant variants; experiment: KINOMEscan scanMAX panel, whole panel; assay type: binding; conditions: 2,000 nM; CDK2, 3, 4, 5, 7, 9, 11A, 11B, 13, 14, 15, 16, 17, 18, CDKL1, CDKL3, CDKL5
[39] = target: HASPIN (Homo sapiens (Human), UniProt Q8TF76); experiment: DiscoverX Kd assay

Sequence of FGFR4 (P22455 22-802): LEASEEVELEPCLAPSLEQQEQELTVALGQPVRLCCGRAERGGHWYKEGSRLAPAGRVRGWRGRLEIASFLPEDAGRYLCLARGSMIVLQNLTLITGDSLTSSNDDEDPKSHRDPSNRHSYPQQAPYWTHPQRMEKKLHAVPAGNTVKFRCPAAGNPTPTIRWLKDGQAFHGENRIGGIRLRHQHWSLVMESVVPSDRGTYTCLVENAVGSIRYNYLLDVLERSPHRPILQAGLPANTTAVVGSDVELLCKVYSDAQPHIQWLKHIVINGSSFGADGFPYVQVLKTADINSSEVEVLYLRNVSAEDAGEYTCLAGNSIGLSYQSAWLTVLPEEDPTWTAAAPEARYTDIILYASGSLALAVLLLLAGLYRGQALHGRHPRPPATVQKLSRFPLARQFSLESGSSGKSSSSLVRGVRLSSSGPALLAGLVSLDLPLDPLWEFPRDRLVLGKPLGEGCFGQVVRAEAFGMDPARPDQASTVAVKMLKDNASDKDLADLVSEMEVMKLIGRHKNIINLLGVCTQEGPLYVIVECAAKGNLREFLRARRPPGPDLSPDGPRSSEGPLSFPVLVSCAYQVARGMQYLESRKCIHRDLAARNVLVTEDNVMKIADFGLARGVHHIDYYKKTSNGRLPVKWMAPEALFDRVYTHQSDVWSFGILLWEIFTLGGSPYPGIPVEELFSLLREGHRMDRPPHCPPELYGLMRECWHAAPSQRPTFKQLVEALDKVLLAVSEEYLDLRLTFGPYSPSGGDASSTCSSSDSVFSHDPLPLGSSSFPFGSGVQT
Sequence of VEGFR2 (KDR) (P35968 20-1356): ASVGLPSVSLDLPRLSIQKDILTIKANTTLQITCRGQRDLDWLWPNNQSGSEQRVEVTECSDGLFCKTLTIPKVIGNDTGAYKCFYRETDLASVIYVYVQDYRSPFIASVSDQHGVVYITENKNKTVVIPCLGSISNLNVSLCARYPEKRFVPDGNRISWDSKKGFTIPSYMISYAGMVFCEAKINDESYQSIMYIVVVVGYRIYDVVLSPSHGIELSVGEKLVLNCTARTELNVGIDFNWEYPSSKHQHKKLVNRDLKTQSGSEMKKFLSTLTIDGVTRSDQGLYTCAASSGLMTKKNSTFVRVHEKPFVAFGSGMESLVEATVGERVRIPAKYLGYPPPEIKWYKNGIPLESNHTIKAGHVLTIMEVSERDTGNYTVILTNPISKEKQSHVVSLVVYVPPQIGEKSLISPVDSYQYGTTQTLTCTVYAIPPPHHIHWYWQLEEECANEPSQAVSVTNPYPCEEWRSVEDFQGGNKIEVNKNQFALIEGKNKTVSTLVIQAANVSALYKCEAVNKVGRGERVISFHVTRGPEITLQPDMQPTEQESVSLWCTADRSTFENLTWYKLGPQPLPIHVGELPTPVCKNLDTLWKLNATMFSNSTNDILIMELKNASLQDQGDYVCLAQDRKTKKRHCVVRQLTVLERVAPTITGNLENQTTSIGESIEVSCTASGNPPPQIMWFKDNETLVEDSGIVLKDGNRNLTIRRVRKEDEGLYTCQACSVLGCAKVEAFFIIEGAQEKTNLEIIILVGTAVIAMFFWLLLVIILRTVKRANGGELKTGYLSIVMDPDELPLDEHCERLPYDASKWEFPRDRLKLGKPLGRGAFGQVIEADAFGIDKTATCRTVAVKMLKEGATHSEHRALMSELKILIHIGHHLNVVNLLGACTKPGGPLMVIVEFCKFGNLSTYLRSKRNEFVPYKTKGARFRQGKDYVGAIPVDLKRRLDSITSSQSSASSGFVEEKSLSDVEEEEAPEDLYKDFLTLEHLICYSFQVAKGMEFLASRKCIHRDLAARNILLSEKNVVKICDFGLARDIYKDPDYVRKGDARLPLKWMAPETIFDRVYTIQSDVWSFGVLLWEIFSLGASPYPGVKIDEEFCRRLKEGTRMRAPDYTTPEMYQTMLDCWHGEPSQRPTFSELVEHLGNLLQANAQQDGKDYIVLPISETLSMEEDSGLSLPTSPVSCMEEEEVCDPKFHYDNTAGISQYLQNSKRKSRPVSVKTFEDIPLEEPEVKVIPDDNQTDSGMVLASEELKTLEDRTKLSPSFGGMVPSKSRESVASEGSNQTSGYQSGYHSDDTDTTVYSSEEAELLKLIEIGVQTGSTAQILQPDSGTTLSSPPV
Sequence of CASK (O14936 whole entry): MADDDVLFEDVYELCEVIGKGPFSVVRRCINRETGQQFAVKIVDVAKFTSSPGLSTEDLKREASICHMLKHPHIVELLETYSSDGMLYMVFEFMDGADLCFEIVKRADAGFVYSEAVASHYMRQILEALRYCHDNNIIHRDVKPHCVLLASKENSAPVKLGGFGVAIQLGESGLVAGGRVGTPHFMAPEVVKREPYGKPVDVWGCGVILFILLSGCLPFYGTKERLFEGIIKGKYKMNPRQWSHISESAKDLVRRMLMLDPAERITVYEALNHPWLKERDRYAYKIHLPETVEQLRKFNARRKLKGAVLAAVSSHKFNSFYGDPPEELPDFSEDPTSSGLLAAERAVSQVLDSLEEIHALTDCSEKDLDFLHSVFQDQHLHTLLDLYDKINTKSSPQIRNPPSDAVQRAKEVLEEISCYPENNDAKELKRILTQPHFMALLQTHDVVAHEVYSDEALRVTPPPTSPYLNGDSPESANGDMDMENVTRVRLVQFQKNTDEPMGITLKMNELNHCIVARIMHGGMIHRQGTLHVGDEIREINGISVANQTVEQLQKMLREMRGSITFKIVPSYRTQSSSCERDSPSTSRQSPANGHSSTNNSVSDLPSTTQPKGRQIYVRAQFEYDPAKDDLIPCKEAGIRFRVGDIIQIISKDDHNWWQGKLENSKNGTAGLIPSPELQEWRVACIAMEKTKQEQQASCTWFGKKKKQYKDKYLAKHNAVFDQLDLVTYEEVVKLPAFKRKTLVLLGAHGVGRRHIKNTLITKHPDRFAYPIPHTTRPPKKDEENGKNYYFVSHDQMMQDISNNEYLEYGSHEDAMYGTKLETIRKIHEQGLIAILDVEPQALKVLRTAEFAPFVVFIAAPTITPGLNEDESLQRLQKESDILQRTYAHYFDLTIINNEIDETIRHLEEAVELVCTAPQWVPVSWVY
Sequence of PHKG1 (Q16816 whole entry): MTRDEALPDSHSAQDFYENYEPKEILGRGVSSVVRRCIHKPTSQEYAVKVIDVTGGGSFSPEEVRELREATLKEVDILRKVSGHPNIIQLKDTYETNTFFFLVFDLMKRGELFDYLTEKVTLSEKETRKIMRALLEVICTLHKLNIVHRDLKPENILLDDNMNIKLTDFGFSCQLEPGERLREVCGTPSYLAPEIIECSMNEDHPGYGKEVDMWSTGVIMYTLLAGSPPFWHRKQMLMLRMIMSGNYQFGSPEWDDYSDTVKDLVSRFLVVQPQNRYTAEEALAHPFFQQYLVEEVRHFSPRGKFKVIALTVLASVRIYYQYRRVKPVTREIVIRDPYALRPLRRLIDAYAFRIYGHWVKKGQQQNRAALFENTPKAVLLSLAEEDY
Sequence of FGFR2 (P21802 22-821): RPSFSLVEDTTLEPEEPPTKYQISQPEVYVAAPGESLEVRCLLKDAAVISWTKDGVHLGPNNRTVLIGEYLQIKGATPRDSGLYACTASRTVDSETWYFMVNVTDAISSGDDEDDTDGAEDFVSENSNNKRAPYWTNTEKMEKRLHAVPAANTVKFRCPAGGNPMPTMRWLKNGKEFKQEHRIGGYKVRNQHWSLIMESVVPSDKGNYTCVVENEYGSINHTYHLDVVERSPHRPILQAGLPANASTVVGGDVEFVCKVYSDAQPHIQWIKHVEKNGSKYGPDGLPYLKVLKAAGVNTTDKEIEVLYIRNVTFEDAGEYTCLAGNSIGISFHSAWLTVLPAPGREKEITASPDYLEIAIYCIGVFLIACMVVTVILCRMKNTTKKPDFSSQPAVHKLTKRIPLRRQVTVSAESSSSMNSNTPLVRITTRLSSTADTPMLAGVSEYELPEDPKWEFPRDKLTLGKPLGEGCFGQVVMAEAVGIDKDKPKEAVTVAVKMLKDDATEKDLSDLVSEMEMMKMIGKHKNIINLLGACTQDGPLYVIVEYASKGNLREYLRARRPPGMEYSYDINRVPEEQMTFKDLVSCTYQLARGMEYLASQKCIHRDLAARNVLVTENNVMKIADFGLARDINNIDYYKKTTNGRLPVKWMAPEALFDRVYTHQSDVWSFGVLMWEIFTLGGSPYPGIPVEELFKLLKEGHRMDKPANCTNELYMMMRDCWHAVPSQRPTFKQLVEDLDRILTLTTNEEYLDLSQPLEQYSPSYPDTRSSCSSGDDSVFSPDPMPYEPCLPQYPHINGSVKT
Sequence of PIP5K2B (PIP4K2B) (P78356 whole entry): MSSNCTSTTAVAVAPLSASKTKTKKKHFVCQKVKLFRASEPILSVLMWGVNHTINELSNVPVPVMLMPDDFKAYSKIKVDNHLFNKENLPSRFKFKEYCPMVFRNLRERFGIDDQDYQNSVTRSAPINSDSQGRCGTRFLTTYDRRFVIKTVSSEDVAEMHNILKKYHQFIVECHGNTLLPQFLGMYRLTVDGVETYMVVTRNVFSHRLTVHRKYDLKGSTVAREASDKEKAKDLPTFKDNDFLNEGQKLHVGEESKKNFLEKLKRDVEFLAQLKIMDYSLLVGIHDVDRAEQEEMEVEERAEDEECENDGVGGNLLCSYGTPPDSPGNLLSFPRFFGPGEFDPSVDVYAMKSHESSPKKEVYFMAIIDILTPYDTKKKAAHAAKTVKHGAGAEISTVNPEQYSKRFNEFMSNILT
Sequence of NEK6 (Q9HC98 whole entry): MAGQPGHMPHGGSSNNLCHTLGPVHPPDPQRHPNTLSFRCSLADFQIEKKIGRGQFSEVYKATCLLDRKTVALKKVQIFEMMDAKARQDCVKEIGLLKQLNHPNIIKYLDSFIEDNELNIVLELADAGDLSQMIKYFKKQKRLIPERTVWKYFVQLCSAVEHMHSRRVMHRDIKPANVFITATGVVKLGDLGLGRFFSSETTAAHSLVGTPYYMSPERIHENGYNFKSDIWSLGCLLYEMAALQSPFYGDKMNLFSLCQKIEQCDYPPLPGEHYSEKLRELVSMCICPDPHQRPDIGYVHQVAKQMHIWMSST

SMILES: CN1CCN(C(=O)c2ccc3cc(CCNc4ccnc5ccc(C#N)cc45)ccc3c2)CC1 [compound 6148, 4-((2-(6-(4-methylpiperazine-1-carbonyl)naphthalen-2-yl)ethyl)amino)quinoline-6-carbonitrile]
- remaining binding at 2 µM [1]: 73%
- remaining binding at 2 µM [2]: 100%
- remaining binding at 2 µM [3]: 84%
- remaining binding at 2 µM [4]: 95%
- remaining binding at 2 µM [5]: 70%
- remaining binding at 2 µM [6]: 93%
- remaining binding at 2 µM [7]: 87%
- remaining binding at 2 µM [8]: 76%
- remaining binding at 2 µM [9]: 89%
- remaining binding at 2 µM [10]: 98%
- remaining binding at 2 µM [11]: 96%
- remaining binding at 2 µM [12]: 70%
- remaining binding at 2 µM [13]: 76%
- remaining binding at 2 µM [14]: 91%
- remaining binding at 2 µM [15]: 88%
- remaining binding at 2 µM [16]: 93%
- remaining binding at 2 µM [17]: 62%
- remaining binding at 2 µM [18]: 80%
- remaining binding at 2 µM [19]: 100%
- remaining binding at 2 µM [20]: 79%
- remaining binding at 2 µM [21]: 93%
- remaining binding at 2 µM [22]: 94%
- remaining binding at 2 µM [23]: 80%
- remaining binding at 2 µM [24]: 100%
- remaining binding at 2 µM [25]: 90%
- remaining binding at 2 µM [26]: 95%
- remaining binding at 2 µM [27]: 55%
- remaining binding at 2 µM [28]: 70%
- remaining binding at 2 µM [29]: 86%
- remaining binding at 2 µM [30]: 85%
- remaining binding at 2 µM [31]: 64%
- remaining binding at 2 µM [32]: 91%
- remaining binding at 2 µM [33]: 91%
- remaining binding at 2 µM [34]: 96%
- remaining binding at 2 µM [35]: 77%
- remaining binding at 2 µM [36]: 82%
- remaining binding at 2 µM [37]: 95%
- POC of the other members of the CDK family in the scanMAX panel [38]: ≥ 64 POC
- Kd [39]: 1 µM
